Test results as given in ChEMBL document CHEMBL4251632, “Synthesis and antidepressant-like activity of novel aralkyl piperazine derivatives targeting SSRI/5-HT1A/5-HT7” (Eur J Med Chem, 2018).

Experiments:
[1] = target: T1, 5-hydroxytryptamine receptor 1A (Homo sapiens) (UniProt P08908); experiment: Displacement of [3H]8-OH-DPAT from recombinant human 5-HT1A receptor expressed in HEK293 cell membranes at 10 uM after 60 mins by TopCount scintillation counting method relative to control
T1 sequence (whole entry): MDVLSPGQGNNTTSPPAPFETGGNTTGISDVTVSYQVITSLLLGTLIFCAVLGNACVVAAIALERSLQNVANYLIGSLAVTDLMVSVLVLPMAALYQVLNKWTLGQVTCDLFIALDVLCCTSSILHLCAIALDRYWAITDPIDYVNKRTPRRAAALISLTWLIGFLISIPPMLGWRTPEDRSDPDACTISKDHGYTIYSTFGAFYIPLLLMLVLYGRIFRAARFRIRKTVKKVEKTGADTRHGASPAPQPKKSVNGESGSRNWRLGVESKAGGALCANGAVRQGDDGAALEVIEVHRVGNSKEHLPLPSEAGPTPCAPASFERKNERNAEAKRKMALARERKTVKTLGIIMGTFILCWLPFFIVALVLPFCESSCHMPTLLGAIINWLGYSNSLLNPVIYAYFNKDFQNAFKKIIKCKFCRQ

[2] = target: T2, 5-hydroxytryptamine receptor 7 (Homo sapiens, UniProt P34969); experiment: Displacement of [3H]LSD from recombinant human 5-HT7 receptor expressed in CHO cell membranes at 10 uM after 120 mins by TopCount scintillation counting method relative to control
[3] = target: Sodium-dependent serotonin transporter (Rattus norvegicus) (UniProt P31652); experiment: Inhibition of [3H]serotonin reuptake in rat brain synaptosomes SERT at 10 uM after 15 mins by TopCount scintillation counting method relative to control; type: subcellular
[4] = Clearance in rat liver microsomes at 1 uM in presence of NADPH by LC-MS/MS analysis; type: ADME, microsome; settings: read-out: CLH
[5] = target: T2, 5-hydroxytryptamine receptor 7; experiment: Displacement of [3H]LSD from recombinant human 5-HT7 receptor expressed in CHO cell membranes after 120 mins by TopCount scintillation counting method
[6] = in vitro; settings: rat, liver microsomes
Description: Half life in rat liver microsomes at 1 uM in presence of NADPH by LC-MS/MS analysis

[7] = target: T3, 5-hydroxytryptamine receptor 1A (Homo sapiens, UniProt P08908); experiment: Displacement of [3H]8-OH-DPAT from recombinant human 5-HT1A receptor expressed in HEK293 cell membranes after 60 mins by TopCount scintillation counting method
T3 sequence (P08908 whole entry): T1 sequence (whole entry)

[8] = target: Sodium-dependent serotonin transporter (Rattus norvegicus, UniProt P31652); experiment: Inhibition of [3H]serotonin reuptake in rat brain synaptosomes SERT after 15 mins by TopCount scintillation counting method; type: subcellular
[9] = system: Mus musculus; experiment: Antidepressant-like activity in mouse assessed as reduction in immobility time at 40 mg/kg/day, po once daily for 7 days measured for last 4 mins of 6 mins test at 1 hr post last dose by forced swim test relative to control; type: functional; design: scale not given: the % may be the effect or the level left
[10] = target: Sodium-dependent serotonin transporter (Homo sapiens, UniProt P31645)
Description: Inhibition of serotonin reuptake in SERT (unknown origin)

[11] = system: Mus musculus; experiment: Antidepressant-like activity in mouse assessed as reduction in immobility time at 40 mg/kg/day, po administered once daily for 7 days measured for 5 mins at 1 hr post last dose by tail suspension test relative to control; type: functional; design: scale not given: the % may be the effect or the level left
[12] = system: Mus musculus; experiment: Antidepressant-like activity in po dosed mouse assessed as reduction in immobility time administered once daily for 7 days measured for last 4 mins of 6 mins test at 1 hr post last dose by forced swim test; type: functional, organism-based
[13] = system: Mus musculus; experiment: Antidepressant-like activity in mouse assessed as reduction in immobility time at 20 mg/kg/day, po once daily for 7 days measured for last 4 mins of 6 mins test at 1 hr post last dose by forced swim test relative to control; type: functional; design: scale not given: the % may be the effect or the level left
[14] = system: Mus musculus; experiment: Antidepressant-like activity in mouse assessed as reduction in immobility time at 10 mg/kg/day, po once daily for 7 days measured for last 4 mins of 6 mins test at 1 hr post last dose by forced swim test relative to control; type: functional; design: scale not given: the % may be the effect or the level left

T2 sequence (P34969 whole entry): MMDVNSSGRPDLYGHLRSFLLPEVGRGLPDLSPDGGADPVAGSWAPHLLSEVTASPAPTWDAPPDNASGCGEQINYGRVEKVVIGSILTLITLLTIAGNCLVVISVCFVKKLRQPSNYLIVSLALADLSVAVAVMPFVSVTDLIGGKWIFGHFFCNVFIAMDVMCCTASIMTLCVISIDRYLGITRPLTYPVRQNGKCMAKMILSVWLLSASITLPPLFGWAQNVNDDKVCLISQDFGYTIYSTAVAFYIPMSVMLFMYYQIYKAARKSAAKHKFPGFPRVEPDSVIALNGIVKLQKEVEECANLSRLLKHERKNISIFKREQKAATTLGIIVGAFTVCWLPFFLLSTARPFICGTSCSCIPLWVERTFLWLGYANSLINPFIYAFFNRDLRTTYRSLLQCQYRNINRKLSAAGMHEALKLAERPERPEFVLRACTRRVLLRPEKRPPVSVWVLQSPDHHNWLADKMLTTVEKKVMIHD
Sequence of Sodium-dependent serotonin transporter (Rattus norvegicus) (P31652 whole entry): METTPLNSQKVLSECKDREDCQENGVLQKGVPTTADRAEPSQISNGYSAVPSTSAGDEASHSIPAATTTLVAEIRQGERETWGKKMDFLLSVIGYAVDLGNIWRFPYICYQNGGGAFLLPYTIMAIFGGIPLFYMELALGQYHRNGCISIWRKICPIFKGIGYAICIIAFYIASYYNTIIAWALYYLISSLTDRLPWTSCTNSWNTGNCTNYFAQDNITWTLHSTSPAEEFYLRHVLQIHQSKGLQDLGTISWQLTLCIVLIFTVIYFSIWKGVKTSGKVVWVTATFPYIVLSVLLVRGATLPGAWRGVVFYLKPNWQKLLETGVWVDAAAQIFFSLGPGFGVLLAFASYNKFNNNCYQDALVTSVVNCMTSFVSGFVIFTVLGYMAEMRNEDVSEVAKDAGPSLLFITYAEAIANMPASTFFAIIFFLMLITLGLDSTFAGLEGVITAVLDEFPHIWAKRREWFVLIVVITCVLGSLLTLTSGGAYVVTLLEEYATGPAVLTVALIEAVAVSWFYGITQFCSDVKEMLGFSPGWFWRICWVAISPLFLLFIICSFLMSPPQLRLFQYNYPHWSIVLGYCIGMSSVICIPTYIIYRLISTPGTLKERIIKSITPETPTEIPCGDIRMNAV
Sequence of Sodium-dependent serotonin transporter (Rattus norvegicus, UniProt P31652) (P31652 whole entry): as above
Sequence of Sodium-dependent serotonin transporter (Homo sapiens, UniProt P31645) (P31645 whole entry): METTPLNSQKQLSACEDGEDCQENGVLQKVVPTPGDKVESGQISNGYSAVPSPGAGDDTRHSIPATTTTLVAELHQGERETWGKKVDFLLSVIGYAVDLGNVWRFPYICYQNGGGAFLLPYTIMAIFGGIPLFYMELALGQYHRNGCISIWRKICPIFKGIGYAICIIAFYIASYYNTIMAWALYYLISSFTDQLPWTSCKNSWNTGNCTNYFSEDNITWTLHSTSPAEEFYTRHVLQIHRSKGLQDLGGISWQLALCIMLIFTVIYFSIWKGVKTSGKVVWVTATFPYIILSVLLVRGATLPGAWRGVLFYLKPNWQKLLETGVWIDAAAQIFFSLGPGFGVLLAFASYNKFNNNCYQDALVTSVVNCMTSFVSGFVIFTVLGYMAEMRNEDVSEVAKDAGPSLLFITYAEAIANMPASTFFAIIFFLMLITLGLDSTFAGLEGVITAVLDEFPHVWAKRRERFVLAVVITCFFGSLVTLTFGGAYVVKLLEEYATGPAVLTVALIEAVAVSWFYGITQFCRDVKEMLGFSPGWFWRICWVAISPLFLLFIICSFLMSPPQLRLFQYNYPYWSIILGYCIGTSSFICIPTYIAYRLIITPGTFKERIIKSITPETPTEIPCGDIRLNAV

Ki [5] | Ki [7] | IC50 [8] | SMILES | inhibition [1] | inhibition [2] | inhibition [3] | microsomal CLint at 1 µM [4] | half-life at 1 µM [6] | also measured
0.0011 µM | 0.013 µM | 0.0076 µM | Fc1ccc2[nH]cc(CCCN3CCN(c4ccccc4-c4ccccc4)CC3)c2c1 | > 90% | > 90% | > 90% | – | – | –
– | – | 0.12 µM | Fc1cccc(-c2cc(F)ccc2N2CCN(CCCCc3c[nH]c4ccc(F)cc34)CC2)c1 | 96% | 97.5% | > 90% | – | – | –
0.0011 µM | 0.0081 µM | 0.042 µM | Fc1cccc(-c2ccccc2N2CCN(CCCc3c[nH]c4ccc(F)cc34)CC2)c1 | > 90% | > 90% | > 90% | 50 µL/min/mg | 27.7 min | –
0.0026 µM | 0.015 µM | 0.0094 µM | Fc1cccc(-c2ccc(F)cc2N2CCN(CCCc3c[nH]c4ccc(F)cc34)CC2)c1 | > 90% | > 90% | > 90% | 48.1 µL/min/mg | 28.8 min | –
0.00055 µM | 0.018 µM | 0.01 µM | Fc1cccc(-c2c(F)cccc2N2CCN(CCCc3c[nH]c4ccc(F)cc34)CC2)c1 | > 90% | > 90% | > 90% | 51.5 µL/min/mg | 26.9 min | –
– | – | 2.9 µM | c1ccc(-c2ccccc2N2CCN(CCc3cc4ccccc4o3)CC2)cc1 | 97.7% | 96.4% | > 90% | – | – | –
– | – | 0.21 µM | c1ccc(-c2ccccc2N2CCN(CCc3coc4ccccc34)CC2)cc1 | 99.5% | 102% | > 90% | – | – | –
0.012 µM | 0.062 µM | 0.031 µM | Fc1cccc(-c2cc(F)ccc2N2CCN(CCCc3c[nH]c4ccc(F)cc34)CC2)c1 | > 90% | > 90% | > 90% | 24.4 µL/min/mg | 56.8 min | Activity [12]: Dose-dependent effect; Activity [13]: 21%; Activity [14]: 18%; Activity [9]: 37%

The remaining lines, values behind:

SMILES | Ki [5] | Ki [7] | IC50 [8] | inhibition [1] | inhibition [2] | inhibition [3] | microsomal CLint at 1 µM [4] | half-life at 1 µM [6] | also measured
Fc1cccc(-c2ccccc2N2CCN(CCc3c[nH]c4ccc(F)cc34)CC2)c1 | 0.00079 µM | 0.0056 µM | 0.15 µM | > 90% | 0.79% | > 90% | 155 µL/min/mg | 9 min | –
CSc1ccccc1N1CCN(CCc2coc3ccccc23)CC1 | – | – | – | 99.7% | 86.8% | 112% | – | – | –
Cc1ccc(Sc2ccccc2N2CCNCC2)c(C)c1 [VORTIOXETINE] | – | – | – | – | – | – | – | – | Activity [9]: 48 - 52%
Cc1cccc(-c2ccccc2N2CCN(CCc3c[nH]c4ccc(F)cc34)CC2)c1 | – | – | 0.16 µM | 98.1% | 97.3% | > 90% | – | – | –
COc1ccccc1N1CCN(CCCN2CCOc3ccccc32)CC1 | – | – | – | – | – | – | – | – | Ki [10]: 0.195 µM
Fc1cc2c(c(OCCNCCCc3c[nH]c4ccc(F)cc34)c1)OCCC2 | – | – | – | – | – | – | – | – | Ki [10]: 0.00047 µM
COc1ccc(-c2ccccc2N2CCN(CCc3c[nH]c4ccc(F)cc34)CC2)cc1 | – | – | – | 99.2% | 94.7% | 82.8% | – | – | –
c1ccc(-c2cccc(N3CCN(CCc4coc5ccccc45)CC3)c2)cc1 | – | – | – | 97.5% | 71.9% | 99.4% | – | – | –
N#Cc1ccc2[nH]cc(CCN3CCN(c4ccccc4-c4ccccc4)CC3)c2c1 | – | – | 0.19 µM | 97.6% | 93.7% | > 90% | – | – | –
COc1ccc(C(CN(C)C)C2(O)CCCCC2)cc1 (stereo not given) [VENLAFAXINE] | – | – | – | – | – | – | – | – | Activity [11]: 35%
COc1ccccc1N1CCN(CCc2coc3ccccc23)CC1 | – | – | – | 98.5% | 85.6% | 110% | – | – | –
Fc1ccc(-c2ccccc2N2CCN(CCc3c[nH]c4ccc(F)cc34)CC2)cc1 | – | – | 0.59 µM | 101% | 94.9% | > 90% | 144 µL/min/mg | 9.6 min | –
Fc1ccc2[nH]cc(CCN3CCN(c4ccccc4-c4ccccc4)CC3)c2c1 | 0.00026 µM | 0.00053 µM | 0.11 µM | > 90% | > 90% | > 90% | 226 µL/min/mg | 6.1 min | –
Fc1ccc2[nH]cc(CCN3CCN(c4ccccc4-c4ccccc4F)CC3)c2c1 | 0.0023 µM | 0.025 µM | 0.096 µM | > 90% | > 90% | > 90% | 343 µL/min/mg | 4 min | –
N#Cc1ccc(-c2ccccc2N2CCN(CCc3c[nH]c4ccc(F)cc34)CC2)cc1 | – | – | – | 99.5% | 97.3% | 84.2% | – | – | –
Cc1ccc(-c2ccccc2N2CCN(CCc3c[nH]c4ccc(F)cc34)CC2)cc1 | – | – | 1.7 µM | 101% | 99.5% | > 90% | – | – | –
